We go through 1 compound from ChEMBL document CHEMBL4325859, “Research advances on anticancer activities of matrine and its derivatives: An updated overview” (Eur J Med Chem, 2019).

Assay [1] deals with SW480. The experiment in a line: Antitumor activity against human SW480 cells xenografted in Balb/c mouse assessed as tumor growth inhibition at 30 mg/kg, ip everyday relative to control. Type of assay: functional. The settings on record: read-out: TGI.
Assay [2] concerns HepG2. Kind of assay: Antiproliferative activity against human HepG2 cells at 0.8 mg/ml after 48 hrs relative to control. Type of assay: functional.
Assay [3] relates to RPMI-8226. Kind of assay: Growth inhibition of human RPMI8226 cells at 500 mg/L after 48 hrs by MTT assay relative to control. Type of assay: functional. The conditions noted are these: RPMI-8226, 48 h, read-out: GI. A general note: Formazan colour is commonly taken as a measure of viable cells.
In assay [4] the test system is C-33-A. Kind of assay: Induction of apoptosis in human C33A cells at 50 ug/ml after 48 hrs by Annexin V-FITC/propidium iodide staining based flow cytometry relative to control. Type of assay: functional. For orientation: In flow cytometry, cells or beads pass a laser one at a time.
Assay [5] deals with HeLa. The experiment in a line: Induction of apoptosis in human HeLa cells at 100 ug/ml after 48 hrs by Annexin V-FITC/propidium iodide staining based flow cytometry relative to control. Type of assay: functional.
The subject of assay [6] is RPMI-8226. Kind of assay: Growth inhibition of human RPMI8226 cells at […] after 24 hrs relative to control. In kind it is functional. The settings on record: RPMI-8226, 24 h, read-out: GI.
Assay [7] deals with D341 cell line. The experiment in a line: Growth inhibition of human D341 cells at 1 mg/ml after 72 hrs by CCK8 assay relative to control. Type of assay: functional. The conditions noted are these: D341, 72 h, read-out: GI.
The subject of assay [8] is LoVo. Kind of assay: Antiproliferative activity against human LoVo cells after 72 hrs by MTT assay. In kind it is functional, cell-based.

By IC50 is commonly meant the point on the concentration scale where inhibition reaches its midpoint. Low readings indicate higher potency, high ones lower potency. On to `O=C1CCC[C@@H]2[C@H]3CCCN4CCC[C@@H](CN12)[C@@H]34` [MATRINE], for which, in assay [1], the inhibition in vivo at 30 mg/kg is 13.7%. Besides, the Activity in assay [2] came to 44.03%; in assay [4], 15.37%; in assay [5], 38.41%. Also, the inhibition of growth at 500 µg/mL in assay [3] stood at 17.9%. The inhibition of growth at 2 g/mL in assay [6] came to 74%. Further, the inhibition of growth at 1000 µg/mL in assay [7] stood at 28.3%. Further, the IC50 in assay [8] was 1660 µM.
